Key:
[1] = test system: Staphylococcus aureus; assay: Bacterial cytotoxicity / growth inhibition of S. aureus in TSB medium (OD600); type: cell-based; conditions: concentration range of 10 μM to 400 μM
[2] = type: physicochemical; conditions: buffer
Description: The kinetics of Fe^2+ removal was followed by measuring the decrease of Fe^2+ ion concentration in aqueous solution where the dialysis bag containing the PVP-coated CaPB NPs was immersed. The simultaneous increase of Ca^2+ ion concentration in the same solution was also determined quantitatively by AAS to verify the kinetics (FIG. 5b).

Compound: [Ca+2].[Cl-].[Cl-] [CaCl2]
- effect on growth of S. aureus [1]: no effect on growth

Compound: KCa[Fe^III(CN)6].n H2O [CaPB^III NPs]
- half-life T1/2 of Fe^2+ removal [2]: 55 min

Reference: patent publication US20200016086A1, “Nanoparticulate Materials and Methods for Targeting Iron Acquisition and Metabolism for Treating Bacterial Infections” (KENT STATE UNIVERSITY, priority 2017, published 2020)
